Patent US20040259173A1, “Method of determining target protein of drug” (priority 2001, published 2004)

Columns and labels:
src = src (Homo sapiens, UniProt P12931); settings: cited from earlier work
[1] = system: proteins in cell lysate of HCT116; experiment: Protease digestion assay of HCT116 cell lysate, SDS-PAGE with Coomassie Brilliant Blue staining; format: biochemical, human; settings: UCS15A 0-300 μmol/L, 37° C. for 12 hours, endogenous protease
Method: (§1) By using Dulbecco's modification of Eagle's medium (DMEM) containing 10% fetal bovine serum, human colon tumor cell line HCT116 (ATCC number CCL-247) was cultured on 100 mm diameter dishes for cell culturing in a CO2 incubator at 37° C. under 5% CO2 condition, and proliferated by subculture with division into five portions every 3 days. The culture medium was removed from three HCT116 cell dishes on the third day from the subculture, and cells were washed by addition and successive removal of 10 ml of ice-cooled PBS. To these cells, 10 mL of RSB (10 mmol/L Tris-hydrochloride pH7.6, 10 mmol/L NaCl, 1.5 mmol/L MgCl2) having a low osmotic pressure was added. After the cells were put on ice for 10 minutes to allow expansion, the cells were detached from the dishes and put into 15 mL volume Dounce homogenizer together with the already added RBS. The cells were disrupted by 50 strokes of a pestle. This cell lysate was centrifuged at 4° C., 15,000 rpm for 30 minutes. The obtained supernatant was collected, and divided into ten 1 mL aliquots.
UCS15A was isolated and purified from Streptmyces actinobacterium, according to the descriptions in Japanese Published Unexamined Patent Application No. 58-116686, and a dimethylsulfoxide (DMSO) solution at a concentration of 10 mmol/L was prepared. […]

src and Sam68 = src and Sam68 (Homo sapiens, UniProt Q07666); settings: cited from earlier work
Sequence of src and Sam68 (Q07666 whole entry, species assumed): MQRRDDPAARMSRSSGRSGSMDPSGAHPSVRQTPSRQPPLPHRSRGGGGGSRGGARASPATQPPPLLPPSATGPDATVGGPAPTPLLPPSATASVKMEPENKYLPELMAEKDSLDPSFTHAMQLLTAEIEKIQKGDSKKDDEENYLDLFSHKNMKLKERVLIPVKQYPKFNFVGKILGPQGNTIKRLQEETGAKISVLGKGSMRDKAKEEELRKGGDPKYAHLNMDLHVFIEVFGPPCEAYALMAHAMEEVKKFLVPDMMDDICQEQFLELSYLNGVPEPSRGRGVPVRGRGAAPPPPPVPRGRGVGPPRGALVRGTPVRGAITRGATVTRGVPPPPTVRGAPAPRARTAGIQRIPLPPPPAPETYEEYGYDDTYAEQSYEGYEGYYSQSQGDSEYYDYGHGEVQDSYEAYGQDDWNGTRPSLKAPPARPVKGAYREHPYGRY

[2] = system: signal transduction of tyrosine kinase src; settings: cited from earlier work
bone resorption = settings: cited from earlier work
Sam68 = target: T1, Sam68 (Homo sapiens, UniProt Q07666); experiment: Protease digestion assay with specific detection of Sam68 by Western blotting; format: biochemical; settings: HCT116 cell lysate, 37° C. for 12 hours
T1 construct: endogenous in cells; host or cells: HCT116 (ATCC CCL-247) cell lysate
T1 sequence (Q07666 whole entry): as the sequence (Q07666 whole entry, species assumed) above
Method: as §1, with “The obtained supernatant was collected, and divided into ten 1 mL aliquots.” left out
Sam68 in the cell lysate was detected by Western blotting as described below. […]
When the protease digestion assay described in (2) was conducted, a protease inhibitor cocktail (Complete; manufactured by Roche) which can inhibit wide variety of proteases was added along with UCS15A, and the same reaction was proceeded. After the electrophoresis, Sam68 was detected by Western blotting in a same manner to that of (3). […]

## UCS15A
src
  inhibition of enzyme activity of src: not to inhibit the enzyme activity of src
[1]
  change of protein amounts in the cell lysate (Coomassie Brilliant Blue stained gel): Several proteins, which decreased their amounts with the increase of UCS15A concentration, were observed
Src and Sam68
  inhibition of binding between src and Sam68: specifically inhibit the binding between src and Sam68
[2]
  inhibition of signal transduction of tyrosine kinase src: inhibit the signal transduction of tyrosine kinase src
Bone resorption
  inhibitory activity on bone resorption: has an inhibitory activity on bone resorption
Sam68; UCS15A 0-300 μmol/L, endogenous protease, without protease inhibitor
  amount of Sam68 in the cell lysate (Western blotting): the amount of Sam68 in the cell lysate decreased with the increase of the UCS15A concentration
Sam68; protease inhibitor cocktail (Complete) added along with UCS15A
  amount of Sam68 in the cell lysate with protease inhibitor (Western blotting): the decrease of the amount of Sam68 in the cell lysate was inhibited by the addition of a protease inhibitor
